# Data: US8937089B2, “Synergistic mixtures of anthranilamide invertebrate pest control agents” (priority 2004, dated 2015)
# Assays:
# Assay in all cases: whole plant or invertebrate
# Type in all cases: in vivo
# [1] = test system: green peach aphid (Myzus persicae Sulzer); conditions: Green Peach Aphid
# Method in brief: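 Compounds formulated in 10% acetone/water with 300 ppm X-77 surfactant were atomized onto aphid-infested radish seedlings, with three replicates per treatment. Infestation was 30–40 aphids transferred on excised leaf pieces, covering contact and systemic exposure. Test units stayed 6 days in a growth chamber at 19–21 °C and 50–70% relative humidity.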
# [2] = test system: silverleaf whitefly (Bemisia argentifolii Bellows and Perring); conditions: Table 2B
# Method in brief: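 Whitefly-egg-infested 12–14-day-old cotton plants sprayed with compound in 10% acetone/90% water plus 300 ppm non-ionic surfactant, in triplicate. Plants then held 13 days at 28 °C and 50–70% relative humidity before mortality assessment.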
# [3] = test system: potato leafhopper (Empoasca fabae Harris); conditions: alone
# Method in brief: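 Bean plants (5–6 days old, one primary leaf excised) were sprayed with 1 mL of compound in 10% acetone/water with 300 ppm X-77 surfactant, 3 replicates. After drying for 1 h, each unit was infested with 5 adult leafhoppers. Units were held 6 days at 19–21 °C and 50–70% RH.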
# [4] = test system: corn planthopper (Peregrines maidis); conditions: Corn Plant Hopper
# Method in brief: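 Compounds in 10% acetone/90% water with 300 ppm X-77 surfactant sprayed (3 replications) onto 3- to 4-day-old corn plants, dried 1 h, then infested with 10–20 corn planthopper nymphs aged 18–20 days. Held 6 days at 19-21° C. and 50-70% relative humidity; contact and/or systemic control assessed.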
# [5] = test system: cotton melon aphid (Aphis gossypii Glover)
# Method in brief: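 Cotton plants (6–7 days old) pre-infested with 30–40 aphids by cut-leaf method, sprayed with compound (ppm) in 10% acetone/90% water with 300 ppm X-77 surfactant, three replicates. Held 6 days at 19–21 °C, 50–70% RH; contact and/or systemic control assessed.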
# [6] = test system: diamondback moth (Plutella xylostella); conditions: Plutella xylostella, in Brassica oleracea, read-out: % mortality (obs)
# Experimental: The test compounds were dissolved in water. […] Serial dilutions were made to obtain the appropriate concentrations. To obtain the desired mixture concentrations of each compound, twice the desired concentration of each of the two mixture partner compounds were mixed together in equal volumes.
# The diluted solutions of the test compounds were sprayed to run-off on three-week-old tomato plants. The plants were placed on a rotating turntable sprayer (10 rpm). Test solutions were applied using a flat fan air-assisted nozzle (Spraying Systems 122440) at 10 psi (69 kPa). […] The leaves were cut into pieces, which were placed singly into 5.5 cm-by-3.5 cm cells of a sixteen-cell plastic tray. Each cell contained a 2.5-cm square of moistened chromatography paper to prevent desiccation. One insect was placed in each cell. There two trays per treatment. Trays were held in the growth chamber at 25° C., 16-hour light:8-hour dark, 60% relative humidity for 4 days.
# For evaluating control of diamondback moth (Plutella xylostella), cabbage (var. Stonehead) plants were grown in Metromix potting soil in 10-cm pots in aluminum trays to test size (28 days, 3-4 full leaves) the plants were sprayed to the point of runoff using the turntable sprayer as described in Test I. Test compounds were formulated and sprayed on test plants as described for Test I. After drying for 2 hours, the treated leaves were excised and infested with one cabbage looper per cell and covered. The test units were placed on trays and put in a growth chamber at 25° C. and 60% relative humidity for 4 days.
# [7] = test system: western flower thrip (Frankliniella occidentalis Pergande); conditions: single compound, spray, 7 days
# Method in brief: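 Compounds in 10% acetone/90% water with 300 ppm non-ionic surfactant were sprayed onto 5- to 7-day-old bean plants, 3 replicates. After 1 h drying, 22–27 adult thrips were added per unit. Units were held 7 days at 25° C, 45–55% RH, assessing contact and/or systemic control.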
compound,measurement,setting,value
Cc1ccc(/N=C/N(C)/C=N/c2ccc(C)cc2C)c(C)c1 [Amitraz],mortality at 10 ppm,"[1]; Myzus persicae, in Raphanus sativus, rate 10 ppm, read-out: % mortality (obs)",16%
same,mortality at 100 ppm,"[1]; Myzus persicae, in Raphanus sativus, rate 100 ppm, read-out: % mortality (obs)",12%
same,mortality at 1000 ppm,"[1]; Myzus persicae, in Raphanus sativus, rate 1000 ppm, read-out: % mortality (obs)",34%
same,mortality at 500 ppm,"[2]; Bemisia argentifolii, in Gossypium hirsutum, rate 500 ppm, read-out: % mortality (obs)",5%
same,mortality at 1000 ppm,"[2]; Bemisia argentifolii, in Gossypium hirsutum, rate 1000 ppm, read-out: % mortality (obs)",0%
same,mortality at 2000 ppm,"[2]; Bemisia argentifolii, in Gossypium hirsutum, rate 2000 ppm, read-out: % mortality (obs)",0%
same,mortality at 10 ppm,"[3]; Empoasca fabae, rate 10 ppm, read-out: % mortality (obs)",0%
same,mortality at 100 ppm,"[3]; Empoasca fabae, rate 100 ppm, read-out: % mortality (obs)",7%
same,mortality at 1000 ppm,"[3]; Empoasca fabae, rate 1000 ppm, read-out: % mortality (obs)",13%
same,mortality at 5 ppm,"[4]; rate 5 ppm, read-out: % mortality (obs)",6%
same,mortality at 10 ppm,"[4]; rate 10 ppm, read-out: % mortality (obs)",3%
same,mortality at 50 ppm,"[4]; rate 50 ppm, read-out: % mortality (obs)",5%
same,mortality at 10 ppm,"[5]; Aphis gossypii, rate 10 ppm, read-out: % mortality (obs)",20%
same,mortality at 100 ppm,"[5]; Aphis gossypii, rate 100 ppm, read-out: % mortality (obs)",35%
same,mortality at 1000 ppm,"[5]; Aphis gossypii, rate 1000 ppm, read-out: % mortality (obs)",29%
same,mortality at 10 ppm,[6]; rate 10 ppm,70%
same,mortality at 100 ppm,[6]; rate 100 ppm,20%
same,mortality at 1000 ppm,[6]; rate 1000 ppm,50%
same,mortality at 10 ppm,"[7]; Frankliniella occidentalis, 168 h, rate 10 ppm, read-out: % mortality (obs)",40%
same,mortality at 100 ppm,"[7]; Frankliniella occidentalis, 168 h, rate 100 ppm, read-out: % mortality (obs)",30%
same,mortality at 1000 ppm,"[7]; Frankliniella occidentalis, 168 h, rate 1000 ppm, read-out: % mortality (obs)",20%
Chlorfenapyr,% mortality (obs),[1]; rate 1.5 ppm,22%
same,% mortality (obs),[1]; rate 7 ppm,36%
same,% mortality (obs),[1]; rate 35 ppm,100%
same,% mortality (obs),[2]; rate 10 ppm,6%
same,% mortality (obs),[2]; rate 100 ppm,14%
same,% mortality (obs),[2]; rate 1000 ppm,18%
same,% mortality (obs),[3]; rate 1 ppm,73%
same,% mortality (obs),[3]; rate 5 ppm,100%
same,% mortality (obs),[3]; rate 20 ppm,100%
same,% mortality (obs),[4]; rate 1.5 ppm,31%
same,% mortality (obs),[4]; rate 2.5 ppm,15%
same,% mortality (obs),[4]; rate 3.5 ppm,11%
same,% mortality (obs),[5]; rate 1 ppm,27%
same,% mortality (obs),[5]; rate 10 ppm,57%
same,% mortality (obs),[5]; rate 150 ppm,67%
same,% mortality (obs),[7]; rate 5 ppm,40%
same,% mortality (obs),[7]; rate 20 ppm,70%
same,% mortality (obs),[7]; rate 150 ppm,90%
Fipronil,% mortality (obs),[1]; rate 2 ppm,17%
same,% mortality (obs),[1]; rate 4 ppm,31%
same,% mortality (obs),[1]; rate 8 ppm,50%
same,% mortality (obs),[2]; rate 50 ppm,1%
same,% mortality (obs),[2]; rate 100 ppm,0%
same,% mortality (obs),[2]; rate 1000 ppm,13%
same,% mortality (obs),[3]; rate 0.5 ppm,7%
same,% mortality (obs),[3]; rate 1 ppm,20%
same,% mortality (obs),[3]; rate 1.5 ppm,27%
same,% mortality (obs),[4]; rate 0.5 ppm,5%
same,% mortality (obs),[4]; rate 1 ppm,41%
same,% mortality (obs),[4]; rate 1.5 ppm,15%
same,% mortality (obs),[5]; rate 2 ppm,27%
same,% mortality (obs),[5]; rate 4 ppm,44%
same,% mortality (obs),[5]; rate 8 ppm,85%
same,% mortality (obs),[7]; rate 0.5 ppm,100%
same,% mortality (obs),[7]; rate 2 ppm,100%
same,% mortality (obs),[7]; rate 10 ppm,100%
Novaluron,% mortality (obs),[1]; rate 250 ppm,14%
same,% mortality (obs),[1]; rate 500 ppm,24%
same,% mortality (obs),[1]; rate 1000 ppm,25%
same,% mortality (obs),[2]; rate 2 ppm,2%
same,% mortality (obs),[2]; rate 10 ppm,0%
same,% mortality (obs),[2]; rate 250 ppm,28%
same,% mortality (obs),[3]; rate 250 ppm,7%
same,% mortality (obs),[3]; rate 500 ppm,7%
same,% mortality (obs),[3]; rate 1000 ppm,0%
same,% mortality (obs),[4]; rate 250 ppm,7%
same,% mortality (obs),[4]; rate 500 ppm,5%
same,% mortality (obs),[4]; rate 1000 ppm,100%
same,% mortality (obs),[5]; rate 50 ppm,28%
same,% mortality (obs),[5]; rate 250 ppm,30%
same,% mortality (obs),[5]; rate 1000 ppm,29%
same,% mortality (obs),[7]; rate 1 ppm,50%
same,% mortality (obs),[7]; rate 100 ppm,50%
same,% mortality (obs),[7]; rate 1000 ppm,80%
Pymetrozine,% mortality (obs),[1]; rate 0.1 ppm,13%
same,% mortality (obs),[1]; rate 0.5 ppm,41%
same,% mortality (obs),[1]; rate 2 ppm,79%
same,% mortality (obs),[2]; rate 10 ppm,3%
same,% mortality (obs),[2]; rate 100 ppm,7%
same,% mortality (obs),[2]; rate 1000 ppm,52%
same,% mortality (obs),[3]; rate 2 ppm,0%
same,% mortality (obs),[3]; rate 15 ppm,13%
same,% mortality (obs),[3]; rate 200 ppm,60%
same,% mortality (obs),[4]; rate 2 ppm,51%
same,% mortality (obs),[4]; rate 10 ppm,29%
same,% mortality (obs),[4]; rate 30 ppm,89%
same,% mortality (obs),[5]; rate 0.1 ppm,22%
same,% mortality (obs),[5]; rate 0.5 ppm,38%
same,% mortality (obs),[5]; rate 2 ppm,62%
same,% mortality (obs),[7]; rate 10 ppm,100%
same,% mortality (obs),[7]; rate 100 ppm,100%
same,% mortality (obs),[7]; rate 1000 ppm,100%
Pyridalyl,% mortality (obs),[1]; rate 1 ppm,18%
same,% mortality (obs),[1]; rate 10 ppm,8%
same,% mortality (obs),[1]; rate 20 ppm,3%
same,% mortality (obs),[2]; rate 10 ppm,0%
same,% mortality (obs),[2]; rate 25 ppm,0%
same,% mortality (obs),[2]; rate 100 ppm,0%
same,% mortality (obs),[3]; rate 0.5 ppm,13%
same,% mortality (obs),[3]; rate 5 ppm,13%
same,% mortality (obs),[3]; rate 50 ppm,7%
same,% mortality (obs),[4]; rate 10 ppm,2%
same,% mortality (obs),[4]; rate 100 ppm,6%
same,% mortality (obs),[4]; rate 1000 ppm,11%
same,% mortality (obs),[5]; rate 1 ppm,22%
same,% mortality (obs),[5]; rate 1.5 ppm,34%
same,% mortality (obs),[5]; rate 2 ppm,32%
same,% mortality (obs),[7]; rate 5 ppm,30%
same,% mortality (obs),[7]; rate 50 ppm,60%
same,% mortality (obs),[7]; rate 500 ppm,100%
Pyriproxyfen,% mortality (obs),[1]; rate 10 ppm,23%
same,% mortality (obs),[1]; rate 100 ppm,12%
same,% mortality (obs),[1]; rate 1000 ppm,26%
same,% mortality (obs),[2]; rate 10 ppm,100%
same,% mortality (obs),[2]; rate 15 ppm,100%
same,% mortality (obs),[2]; rate 20 ppm,100%
same,% mortality (obs),[3]; rate 10 ppm,13%
same,% mortality (obs),[3]; rate 100 ppm,0%
same,% mortality (obs),[3]; rate 1000 ppm,7%
same,% mortality (obs),[4]; rate 10 ppm,0%
same,% mortality (obs),[4]; rate 100 ppm,8%
same,% mortality (obs),[4]; rate 1000 ppm,12%
same,% mortality (obs),[5]; rate 10 ppm,14%
same,% mortality (obs),[5]; rate 100 ppm,28%
same,% mortality (obs),[5]; rate 1000 ppm,33%
same,% mortality (obs),[7]; rate 10 ppm,100%
same,% mortality (obs),[7]; rate 100 ppm,100%
same,% mortality (obs),[7]; rate 1000 ppm,100%
Thiacloprid,% mortality (obs),[1]; rate 0.2 ppm,13%
same,% mortality (obs),[1]; rate 0.3 ppm,68%
same,% mortality (obs),[1]; rate 0.4 ppm,42%
same,% mortality (obs),[2]; rate 15 ppm,40%
same,% mortality (obs),[2]; rate 25 ppm,83%
same,% mortality (obs),[2]; rate 35 ppm,61%
same,% mortality (obs),[3]; rate 0.2 ppm,73%
same,% mortality (obs),[3]; rate 0.5 ppm,93%
same,% mortality (obs),[3]; rate 1.5 ppm,80%
same,% mortality (obs),[4]; rate 0.3 ppm,6%
same,% mortality (obs),[4]; rate 3 ppm,100%
same,% mortality (obs),[4]; rate 30 ppm,100%
same,% mortality (obs),[5]; rate 0.3 ppm,50%
same,% mortality (obs),[5]; rate 1.5 ppm,100%
same,% mortality (obs),[5]; rate 6 ppm,100%
same,% mortality (obs),[7]; rate 1 ppm,20%
same,% mortality (obs),[7]; rate 100 ppm,30%
same,% mortality (obs),[7]; rate 3000 ppm,40%
